Laboratory results taken from patent US20180161292A1, “NUTRITIONAL COMPOSITIONS CONTAINING BUTYRATE AND USES THEREOF” (Mead Johnson Nutrition Company, priority 2016, published 2018).

Test system: oligodendrocyte precursor cells (OPCs)
Test: OPC differentiation into mature oligodendric cells (MBP / PDGFRa immunostaining)
Type: cell-based, rat
Procedure: The OPCs were purified from P7 rat brain cortices. Rodent brain cortices were diced and dissociated with papain at 37° C. After trituration, […] were resuspended in a panning buffer and incubated at room temperature sequentially on the three immunopanning dishes: Ran-2 and GaIC were used for negative selection before positive selection with 04. OPCs were released from the panning dish using 0.05% Trypsin. OPCs were seeded onto PPL-coated coverslips at 200,000 per 25 mm circle coverslip in a chemically defined culture medium with PDGFa overnight.
Sodium Butyrate (NaB) was dissolved in sterile water and added into culture medium the next day to reach desire concentration. OPC coverslips were placed into 6-well dishes, 1 ml of NaB-containing culture medium without PDGFa was added to each well. Cells were cultured for 48 hours before fixation and immunostaining. PDGFRa antibody identifies OPCs and MBP (myelin basic protein) antibody labels differentiated oligodendrocytes. Percentage of MBP-positive cells out of all PDGFRa- and MBP-positives cells were quantified.
Examining a dose response for sodium butyrate on purified oligodendroglial cultures. Sodium butyrate was added to purified oligodendroglial cultures and cells were analyzed after 48 hours of treatment for effects on survival, proliferation and differentiation. Oligodendrocyte precursor cells were immunostained with PDGFRa shown in green, oligodendrocytes were immunostained with MBP in red, cell nuclei were labeled with DAPI in blue. Percentage of MBP-positive oligodendrocytes among all oligodendroglial cells was quantified at various concentrations of sodium butyrate. The asterisks represent significance based on Students t-test with the respective controls (*p<0.05, **p<0.01)

SMILES: CCCC(=O)[O-].[Na+] [sodium butyrate]
- number of oligodendric cells from OPC compared to the control (MBP immunohistochemistry) (250 μM sodium butyrate, FIG. 7): statistically significant increase
- fold increase in the numbers of differentiated and matured oligodendric cells as compared to the control (250 μM sodium butyrate, purified OPCs from P7 rat brain cortices, 48 hours, FIG. 1): 2.6 fold
- effect to promote OPC to differentiate into mature oligodendric cells (dose response 50 nM to 250 μM, 48 hours, FIG. 1): dose-dependent manner
- increase in Oligo cells as compared to the control (each of the concentrations of sodium butyrate (50 nM, 500 nM, 5 μM, 50 μM, 250 μM), 48 hours, Student's t-test, FIG. 1): statistically significant increase
